According to patent US4997757A, “Process for detecting potential carcinogens” (GeneBioMed, Inc., priority 1988, dated 1991):
Where two headings read alike, the source gives them in different places.

Experiments:
[1] = survival of yeast exposed to agent; assay type: cell-based, Saccharomyces cerevisiae
Description: (§1) It is preferred to conduct a preliminary experiment to determine those concentrations of the agent to be tested which should be evaluated in the main experiment. Yeast cells are exposed to a wide range of concentrations of the agent to be tested to determine its cytotoxicity.
(§2) It is preferred that, when the cells are to be grown in the presence of the agent, logarithmic phase cultures are used. In one embodiment, for each of the test strains, a cell suspension of 2×10^6 cells per milliliter-LEU medium be prepared from a logarithmic phase culture pregrown in liquid-LEU medium. The whole mix is aliquoted into portions of 5 milliliter into disposable plastic tubes in the presence of the agent to be tested, the tubes are sealed and shaken continuously for 17 hours.
(§3) The strain used in this example was RS112 which was obtained by crossing strain RSY6 with strain 428. RSY6 contains the SCC system and was deposited at November 30 under "ATCC designation number 20871" with the American Type Culture Collection of 12301 Parklawn Drive, Rockville, Md. 20852. Strain 428 was obtained from M. Snyder, Department of Biology, at Yale University, New Haven, Conn. and was used because it contains the mutation his3Δ-200, the construction of which has been described in an article by Struhl entitled "Naturally occurring poly(dA-dT) sequences are upstream promoter elements of constitutive transcription in yeast, published in Proc. Natl. Acad. Sci. USA 82 on pages 8419-8423. Strains containing the his3Δ-200 mutation are readily available to those skilled in the art.

[2] = tested on: strain RS112 (heteroalleles ade2-40 and ade2-101); assay: ICC (interchromosomal gene conversion) between heteroalleles ade2-40 and ade2-101; assay type: cell-based, Saccharomyces cerevisiae; details: for ICC/10^5 cells: strain RS112
Description: as §2, §3
Strain RS112 has the following genotype: [drawing 2]
Values for the intrachromosomal recombination system between deletion alleles of his3 are designated as SCC. Also strain RS112 contained heteroallelic mutations in ade2 so that the frequency of interchromosomal gene conversion (ICC) between heteroalleles in a diploid was determined. ICC was measured as recombination between the heteroalleles ade2-40 and ade2-101 by selecting for ADE+. Values obtained are given to compare the performance of the two systems.
The frequencies for ICC are given in events per 10^5 survivals, and the frequencies for SCC are given in events per 10^4 survivals. It has to be noted that for sister chromatid recombination in mammalian cells the increase even with potent carcinogens is usually less than ten fold and also slight increases have been taken as positive results. For instance an increase in frequency of two fold has been taken to be significant; see a publication by Rudiger et al. entitled "Metabolites of diethylstilbestrol induce sister chromatid exchange in human cultured fibroblasts." published in Nature 281:392-394).

[3] = cited from earlier work; for carcinogenicity: in vivo
[4] = tested on: Salmonella typhimurium; details: cited from earlier work
[5] = tested on: mammalian cells; details: cited from earlier work
[6] = tested on: strain RS112 (his3 deletion alleles); assay: SCC (sister chromatid conversion) intrachromosomal recombination system, deletion alleles of his3; assay type: cell-based, Saccharomyces cerevisiae; details: for SCC/10^4 cells: strain RS112
Description: (§4) In the most preferred embodiment it is preferable to grow the cells in a medium which selects against the occurrence of the genome rearrangement to keep the control values as low as possible. In the embodiment described in FIG. 1 it is shown that the LEU2 gene of construct 10 is lost after the genome rearrangement which results in construct 22. Therefore cells containing construct 10, before the rearrangement are able to grow in the absence of leucine in the medium, but cells containing construct 22, after the genome rearrangement are not able to grow in the absence of leucine. After the genome rearrangement cells containing construct 22 are able to grow in the absence of histidine in the medium, but cells containing construct 10 before the genome rearrangement are not able to grow in the absence of histidine. Therefore the selection scheme which was used for Example 3 involves growth of the yeast culture in medium lacking leucine but containing histidine before and during the exposure to the potential carcinogens or other test agents. After the exposure the cells which have undergone genome rearrangement are selected on medium lacking histidine but containing leucine.
as §2
(§5) After the yeast cells have been exposed to both the agent to be tested and the selection medium under the conditions of the test and have been incubated for some time period of about more than one day preferably at 30 degrees Celsius or any other temperature which allows growth of the yeast cells used, the number of colonies formed by cells which have undergone genome rearrangement are counted and compared with the number of colonies of yeast cells identical in substantially every respect with the exception of not having been exposed to the suspected carcinogenic agent. The rates of genome rearrangement for both the control and experimental samples are then compared.
(§6) Plasmids were constructed as substrates to study intrachromosomal recombination; see an earlier part of the specification and Example 1. The plasmids pRS6 (FIG. 7, construct 108) and pRS11 (FIG. 9, construct 118) both contained an internal fragment of the HIS3 gene as well as one selectable marker (LEU2). pRS11 in addition contained the 2 μm origin of replication to select for the presence of the plasmid after plasmid excision. pRS11FRT-had the FLP recombination site disrupted (see Example 1). Yeast strains RSY6 containing construct 10, RSY11 containing construct 118 and RSY11FRT- (see Example 1) were used. They contained the respective pRS plasmids integrated into the HIS3 gene of strain S35/2-10C giving rise to disruptions of the HIS3 gene construct 10 or analogs to it (FIG. 10). The two resulting his3 deletion alleles (FIG. 10) shared about 400 basepairs of homology and thus could interact with each other by homologous recombination. Reversion of his- to HIS+ occurred at a frequency of about 4×10^-4 in all three strains. All of 100 tested HIS+ revertants of strain RSY6 were leu-. Because of this observation strains used for recombination studies were always pregrown on -LEU medium to prevent growth of HIS+ revertants. Therefore the frequency of HIS+ revertants is a measure of the recombination rate.
(§7) The strain used in this example was RS112 which was obtained by crossing strain RSY6 with strain 428. RSY6 contains the SCC system and was deposited at November 30 under "ATCC designation number 20871" with the American Type Culture Collection of 12301 Parklawn Drive, Rockville, Md. 20852. […]

[7] = tested on: mammalian cells; details: cited from earlier work; remark: listed apart in the source
[8] = SCC (sister chromatid conversion) intrachromosomal recombination system, deletion alleles of his3; assay type: cell-based, Saccharomyces cerevisiae; details: yeast strain rs112; versus untreated control; read-out: induction for SCC / increase in SCC
Description: as §4, §2, §5, §6, §7

[9] = tested on: strain RS112; assay: survival of yeast exposed to agent; assay type: cell-based, Saccharomyces cerevisiae; details: 1020 min
Description: as §1, §2, §3

[10] = tested on: mice; details: cited from earlier work
[11] = tested on: rats; details: cited from earlier work

In the case of `CCSCC[C@H](N)C(=O)O` [Ethionine], the viability at 17 h ([1]; yeast strain rs112, 10 mg/ml) is reported as 79%, the viability at 17 h ([1]; yeast strain rs112, 20 mg/ml) is reported as 67% and the “ICC/10^5 cells” value ([2]; 10 mg/ml) is reported as 0.77 /10^5 cells. For the same molecule, the “ICC/10^5 cells” value ([2]; 20 mg/ml) was 0.80 /10^5 cells, the carcinogenicity [3] was “liver carcinogen” and the carcinogenicity ([3]; listed as ethionine) was “known carcinogens”. The “Ames Assay result” value [4] was “negative”, the “chromosomal aberration assay result” value [5] was “negative” and the “SCC/10^4 cells” value ([6]; 10 mg/ml) was 4.8 /10^4 cells. For the same molecule, the “SCC/10^4 cells” value ([6]; 20 mg/ml) was 5.4 /10^4 cells and the SCE assay result [7] was “negative”.

Molecule `O=[N+]([O-])c1cc[n+]([O-])c2ccccc12` [NQO, 4-nitroquinoline-N-oxide] has a viability at 17 h ([1]; yeast strain rs112, 0.1 μg/ml) of 84%, a viability at 17 h ([1]; yeast strain rs112, 0.5 μg/ml) of 74% and a viability at 17 h ([1]; yeast strain rs112, 2 μg/ml) of 13.3%. For the same molecule, the “ICC result in words” value [2] was “inducible”, the “ICC/10^5 cells” value ([2]; 0.1 μg/ml) was 57.4 /10^5 cells and the “ICC/10^5 cells” value ([2]; 0.5 μg/ml) was 93 /10^5 cells. The “ICC/10^5 cells” value ([2]; 2 μg/ml) was 106 /10^5 cells, the “SCC result in words” value [6] was “inducible” and the “SCC/10^4 cells” value ([6]; 0.1 μg/ml) was 16.9 /10^4 cells. For the same molecule, the “SCC/10^4 cells” value ([6]; 0.5 μg/ml) was 19.0 /10^4 cells, the “SCC/10^4 cells” value ([6]; 2 μg/ml) was 55.6 /10^4 cells and the fold induction [8] was 20 to 150.

In the case of `C=CCc1ccc(O)c(OC)c1` [eugenol], the “SCC result in words” value [6] is reported as “test positive”.

For `CCOS(C)(=O)=O` [EMS, ethyl methanesulphonate], the viability at 17 h ([1]; yeast strain rs112, 0.02 %) was 98%, the viability at 17 h ([1]; yeast strain rs112, 0.1 %) was 91% and the viability at 17 h ([1]; yeast strain rs112, 0.2 %) was 37%. The “ICC result in words” value [2] was “inducible”, the “ICC/10^5 cells” value ([2]; 0.02 %) was 1.3 /10^5 cells and the “ICC/10^5 cells” value ([2]; 0.1 %) was 15.8 /10^5 cells. The “ICC/10^5 cells” value ([2]; 0.2 %) was 28.9 /10^5 cells, the “SCC result in words” value [6] was “inducible” and the “SCC/10^4 cells” value ([6]; 0.02 %) was 4.1 /10^4 cells. The “SCC/10^4 cells” value ([6]; 0.1 %) was 18.1 /10^4 cells, the “SCC/10^4 cells” value ([6]; 0.2 %) was 25.3 /10^4 cells and the fold induction [8] was 20 to 150.

Work on `Cc1c(N)c(=O)n(-c2ccccc2)n1C` [Aminoantipyrine] yielded a survival ([9]; 10 mg/ml) of 97%, a survival ([9]; 20 mg/ml) of 73.3% and a survival ([9]; 40 mg/ml) of 0.89%. For the same molecule, the “ICC/10^5 cells” value ([2]; 10 mg/ml) was 0.75 /10^5 cells, the “ICC/10^5 cells” value ([2]; 20 mg/ml) was 1.8 /10^5 cells and the carcinogenicity [3] was “known carcinogens”. The “Ames Assay result” value [4] was “negative”, the “chromosomal aberration assay result” value [5] was “negative” and the “SCC/10^4 cells” value ([6]; 10 mg/ml) was 1.02 /10^4 cells. The “SCC/10^4 cells” value ([6]; 20 mg/ml) was 1.80 /10^4 cells, the “SCC/10^4 cells” value ([6]; 40 mg/ml) was 25.8 /10^4 cells and the SCE assay result [7] was “negative”. For the same molecule, the carcinogenicity [10] was “bladder carcinogen”.

Work on `COS(C)(=O)=O` [MMS, methyl methane sulphonate] yielded a viability at 17 h ([1]; yeast strain rs112, 0.001 %) of 100%, a viability at 17 h ([1]; yeast strain rs112, 0.005 %) of 97% and a viability at 17 h ([1]; yeast strain rs112, 0.01 %) of 87%. For the same molecule, the viability at 17 h ([1]; yeast strain rs112, 0.02 %) was 35%, the “ICC result in words” value [2] was “inducible” and the “ICC/10^5 cells” value ([2]; 0.001 %) was 1.9 /10^5 cells. For the same molecule, the “ICC/10^5 cells” value ([2]; 0.005 %) was 14.4 /10^5 cells, the “ICC/10^5 cells” value ([2]; 0.01 %) was 42.3 /10^5 cells and the “ICC/10^5 cells” value ([2]; 0.02 %) was 62 /10^5 cells. For the same molecule, the “SCC result in words” value [6] was “inducible”, the “SCC/10^4 cells” value ([6]; 0.001 %) was 3.9 /10^4 cells and the “SCC/10^4 cells” value ([6]; 0.005 %) was 11.4 /10^4 cells. The “SCC/10^4 cells” value ([6]; 0.01 %) was 46.6 /10^4 cells, the “SCC/10^4 cells” value ([6]; 0.02 %) was 129 /10^4 cells and the fold induction [8] was 20 to 150.

With `CCOC(N)=O` [Urethane] the viability at 17 h ([1]; yeast strain rs112, 10 mg/ml) was 107%, the viability at 17 h ([1]; yeast strain rs112, 20 mg/ml) was 51% and the viability at 17 h ([1]; yeast strain rs112, 40 mg/ml) was 10%. For the same molecule, the “ICC/10^5 cells” value ([2]; 10 mg/ml) was 0.66 /10^5 cells, the “ICC/10^5 cells” value ([2]; 20 mg/ml) was 0.40 /10^5 cells and the “ICC/10^5 cells” value ([2]; 40 mg/ml) was 0.78 /10^5 cells. The carcinogenicity [3] was “known carcinogens”, the “Ames Assay result” value [4] was “negative” and the “chromosomal aberration assay result” value [5] was “negative”. For the same molecule, the “SCC/10^4 cells” value ([6]; 10 mg/ml) was 1.9 /10^4 cells, the “SCC/10^4 cells” value ([6]; 20 mg/ml) was 4.8 /10^4 cells and the “SCC/10^4 cells” value ([6]; 40 mg/ml) was 5.3 /10^4 cells. For the same molecule, the SCE assay result [7] was “negative” and the carcinogenicity [10] was “very effective in producing lung as well as skin tumors in mice”.

`C=O` [Formaldehyde] gave a viability at 17 h ([1]; yeast strain rs112, 0.015 mg/ml) of 97%, a viability at 17 h ([1]; yeast strain rs112, 0.03 mg/ml) of 53% and a viability at 17 h ([1]; yeast strain rs112, 0.05 mg/ml) of 4.2%. For the same molecule, the viability at 17 h ([1]; yeast strain rs112, 0.07 mg/ml) was 2.2%, the “ICC result in words” value [2] was “induces ICC” and the “ICC/10^5 cells” value ([2]; 0.015 mg/ml) was 2.5 /10^5 cells. The “ICC/10^5 cells” value ([2]; 0.03 mg/ml) was 2.1 /10^5 cells, the “ICC/10^5 cells” value ([2]; 0.05 mg/ml) was 5.4 /10^5 cells and the “ICC/10^5 cells” value ([2]; 0.07 mg/ml) was 7.1 /10^5 cells. For the same molecule, the carcinogenicity [3] was “known carcinogen”, the tumor promotion ([3]; proposed) was “proposed to act as tumor promoter” and the “Ames Assay result” value [4] was “negative”. For the same molecule, the carcinogenicity [11] was “causes nasal cancer in rats”, the “SCC result in words” value [6] was “test positive” and the “SCC/10^4 cells” value ([6]; 0.015 mg/ml) was 3.8 /10^4 cells. For the same molecule, the “SCC/10^4 cells” value ([6]; 0.03 mg/ml) was 7.3 /10^4 cells, the “SCC/10^4 cells” value ([6]; 0.05 mg/ml) was 29.5 /10^4 cells and the “SCC/10^4 cells” value ([6]; 0.07 mg/ml) was 40.0 /10^4 cells. It also gave a fold induction [8] of ~20.
